Results as given in ChEMBL document CHEMBL5113478, “7-Azaindole, 2,7-diazaindole, and 1H-pyrazole as core structures for novel anticancer agents with potential chemosensitizing properties” (Eur J Med Chem, 2022).
Calls of active or inactive are those of the source. The calls are words filed in the database; no cut-off is given here.

Key:
[1] = system: A2780; test: Antiproliferative activity against human A2780 cells assessed as […] cell proliferation at 10 uM incubated for 48 hrs by WST-1 assay relative to control; assay type: functional
[2] = system: A549; test: Antiproliferative activity against human A549 cells assessed as […] cell proliferation at 10 uM incubated for 48 hrs by WST-1 assay relative to control; assay type: functional
[3] = system: A549; test: Antiproliferative activity against human A549 cells assessed as […] cell proliferation at 10 uM incubated for 48 hrs in presence of 15 uM of CDDP by WST-1 assay relative to control; assay type: functional
[4] = target: Fibroblast growth factor receptor 3 (Homo sapiens) (UniProt P22607); test: Inhibition of human FGFR3 assessed as residual activity at 10 uM relative to control
[5] = target: Vascular endothelial growth factor receptor 2 (Homo sapiens) (UniProt P35968); test: Inhibition of human KDR assessed as residual activity at 10 uM relative to control
[6] = target: Fibroblast growth factor receptor 2 (Homo sapiens) (UniProt P21802); test: Inhibition of human FGFR2 assessed as residual activity at 10 uM relative to control
[7] = system: A2780; test: Antiproliferative activity against human A2780 cells assessed as […] cell proliferation at 10 uM incubated for 48 hrs in presence of 2 uM of CDDP by WST-1 assay relative to control; assay type: functional
[8] = target: Vascular endothelial growth factor receptor 1 (Homo sapiens) (UniProt P17948); test: Inhibition of human FLT1 assessed as residual activity at 10 uM relative to control
[9] = target: T1, Cytoplasmic tyrosine-protein kinase BMX (Homo sapiens) (UniProt P51813); test: Inhibition of human Bmx assessed as residual activity at 10 uM relative to control
T1 sequence (whole entry): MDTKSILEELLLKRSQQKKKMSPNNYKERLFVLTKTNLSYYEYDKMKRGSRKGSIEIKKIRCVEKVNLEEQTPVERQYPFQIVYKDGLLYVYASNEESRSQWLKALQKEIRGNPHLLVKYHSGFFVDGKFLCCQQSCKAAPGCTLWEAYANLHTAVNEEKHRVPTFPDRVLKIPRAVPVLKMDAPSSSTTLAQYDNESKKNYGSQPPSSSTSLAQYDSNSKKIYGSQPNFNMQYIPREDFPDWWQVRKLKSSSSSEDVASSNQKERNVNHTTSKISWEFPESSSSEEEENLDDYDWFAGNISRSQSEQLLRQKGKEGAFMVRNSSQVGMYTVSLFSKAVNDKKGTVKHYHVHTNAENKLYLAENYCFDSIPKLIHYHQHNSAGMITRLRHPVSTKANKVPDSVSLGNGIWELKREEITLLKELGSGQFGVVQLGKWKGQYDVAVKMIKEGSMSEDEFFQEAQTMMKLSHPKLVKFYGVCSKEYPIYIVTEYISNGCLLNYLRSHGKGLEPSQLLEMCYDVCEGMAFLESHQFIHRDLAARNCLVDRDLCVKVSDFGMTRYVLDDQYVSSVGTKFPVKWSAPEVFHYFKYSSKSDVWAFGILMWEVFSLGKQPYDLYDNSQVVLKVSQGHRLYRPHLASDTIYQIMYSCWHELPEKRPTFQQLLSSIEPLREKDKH

[10] = system: PANC-1; test: Antiproliferative activity against human PANC-1 cells assessed as […] cell proliferation at 10 uM incubated for 48 hrs by WST-1 assay relative to control; assay type: functional
[11] = system: Mast/stem cell growth factor receptor Kit (Homo sapiens), P10721 [V560G]; test: Inhibition of human cKit V560G mutant assessed as residual activity at 10 uM relative to control
[12] = system: 1321N1; test: Chemo-sensitizing activity against human 1321N1 cells at 15 uM incubated for 48 hrs in presence of TMZ by MTT assay; assay type: functional, cell-based
[13] = system: HT-29; test: Antiproliferative activity against human HT-29 cells assessed as […] cell proliferation at 10 uM incubated for 48 hrs by WST-1 assay relative to control; assay type: functional
[14] = system: PANC-1; test: Antiproliferative activity against human PANC-1 cells assessed as […] cell proliferation at 10 uM incubated for 48 hrs in presence of 15 uM of CDDP by WST-1 assay relative to control; assay type: functional
[15] = system: Jurkat; test: Antiproliferative activity against human Jurkat cells assessed as […] cell proliferation at 10 uM incubated for 48 hrs by WST-1 assay relative to control; assay type: functional
[16] = target: Protein kinase C alpha type (Homo sapiens) (UniProt P17252); test: Inhibition of human PKCalpha assessed as residual activity at 10 uM relative to control
[17] = system: MCF7; test: Antiproliferative activity against human MCF7 cells assessed as […] cell proliferation at 10 uM incubated for 48 hrs in presence of 10 uM of CDDP by WST-1 assay relative to control; assay type: functional
[18] = system: HeLa; test: Antiproliferative activity against human HeLa cells assessed as […] cell proliferation at 10 uM incubated for 48 hrs by WST-1 assay relative to control; assay type: functional
[19] = system: 1321N1; test: Cytotoxicity against human 1321N1 cells assessed as reduction in cell viability at 15 uM incubated for 48 hrs by MTT assay; assay type: functional, cell-based
[20] = target: Proto-oncogene tyrosine-protein kinase receptor Ret (Homo sapiens) (UniProt P07949); test: Inhibition of human Ret assessed as residual activity at 10 uM relative to control
[21] = system: HeLa; test: Antiproliferative activity against human HeLa cells assessed as […] cell proliferation at 10 uM incubated for 48 hrs in presence of 15 uM of CDDP by WST-1 assay relative to control; assay type: functional
[22] = system: MCF7; test: Antiproliferative activity against human MCF7 cells assessed as […] cell proliferation at 10 uM incubated for 48 hrs by WST-1 assay relative to control; assay type: functional
[23] = target: Vascular endothelial growth factor receptor 3 (Homo sapiens) (UniProt P35916); test: Inhibition of human FLT4 assessed as residual activity at 10 uM relative to control
[24] = system: GBM; test: Cytotoxicity against patient-derived human GBM cells assessed as reduction in cell viability at 15 uM incubated for 48 hrs by MTT assay; assay type: functional
[25] = system: HT-29; test: Antiproliferative activity against human HT-29 cells assessed as […] cell proliferation at 10 uM incubated for 48 hrs in presence of 15 uM of CDDP by WST-1 assay relative to control; assay type: functional
[26] = target: Angiopoietin-1 receptor (Homo sapiens) (UniProt Q02763); test: Inhibition of human Tie2 assessed as residual activity at 10 uM relative to control
[27] = target: T2, Aurora kinase A (Homo sapiens) (UniProt O14965); test: Inhibition of human Aurora-A assessed as residual activity at 10 uM relative to control
T2 sequence (whole entry): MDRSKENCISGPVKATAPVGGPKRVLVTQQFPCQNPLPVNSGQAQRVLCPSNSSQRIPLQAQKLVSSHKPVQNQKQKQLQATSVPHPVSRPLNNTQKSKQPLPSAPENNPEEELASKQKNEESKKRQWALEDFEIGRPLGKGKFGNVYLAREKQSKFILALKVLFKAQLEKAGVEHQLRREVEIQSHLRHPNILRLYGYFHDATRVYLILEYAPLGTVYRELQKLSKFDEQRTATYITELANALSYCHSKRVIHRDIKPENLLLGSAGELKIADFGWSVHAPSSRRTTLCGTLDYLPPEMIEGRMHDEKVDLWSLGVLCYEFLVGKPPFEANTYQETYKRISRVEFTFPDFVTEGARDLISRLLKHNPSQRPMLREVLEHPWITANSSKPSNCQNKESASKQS

[28] = system: SAOS-2; test: Antiproliferative activity against human SAOS-2 cells assessed as […] cell proliferation at 10 uM incubated for 48 hrs by WST-1 assay relative to control; assay type: functional
[29] = system: MOLT-4; test: Antiproliferative activity against human MOLT-4 cells assessed as […] cell proliferation at 10 uM incubated for 48 hrs by WST-1 assay relative to control; assay type: functional
[30] = system: Jurkat; test: Antiproliferative activity against human Jurkat cells assessed as […] cell proliferation at 10 uM incubated for 48 hrs in presence of 2 uM of CDDP by WST-1 assay relative to control; assay type: functional
[31] = target: High affinity nerve growth factor receptor (Homo sapiens) (UniProt P04629); test: Inhibition of human TrkA assessed as residual activity at 10 uM relative to control
[32] = system: SAOS-2; test: Antiproliferative activity against human SAOS-2 cells assessed as […] cell proliferation at 10 uM incubated for 48 hrs in presence of 15 uM of CDDP by WST-1 assay relative to control; assay type: functional
[33] = system: MOLT-4; test: Antiproliferative activity against human MOLT-4 cells assessed as […] cell proliferation at 10 uM incubated for 48 hrs in presence of 2 uM of CDDP by WST-1 assay relative to control; assay type: functional
[34] = target: ATR/ATRIP (Homo sapiens) (UniProt Q13535+Q8WXE1); test: Inhibition of human ATR/ATRIP assessed as residual activity at 10 uM relative to control; assay type: protein-complex assay
[35] = target: Serine/threonine-protein kinase ATR (Homo sapiens, UniProt Q13535); test: Binding affinity to ATR (unknown origin) assessed as inhibition constant
[36] = Chemo-sensitizing activity against human 1321N1 cells at 15 uM incubated for 48 hrs in presence of TMZ by MTT assay relative to control; assay type: functional

Chain of High affinity nerve growth factor receptor (Homo sapiens) (P04629 33-796 limits assumed): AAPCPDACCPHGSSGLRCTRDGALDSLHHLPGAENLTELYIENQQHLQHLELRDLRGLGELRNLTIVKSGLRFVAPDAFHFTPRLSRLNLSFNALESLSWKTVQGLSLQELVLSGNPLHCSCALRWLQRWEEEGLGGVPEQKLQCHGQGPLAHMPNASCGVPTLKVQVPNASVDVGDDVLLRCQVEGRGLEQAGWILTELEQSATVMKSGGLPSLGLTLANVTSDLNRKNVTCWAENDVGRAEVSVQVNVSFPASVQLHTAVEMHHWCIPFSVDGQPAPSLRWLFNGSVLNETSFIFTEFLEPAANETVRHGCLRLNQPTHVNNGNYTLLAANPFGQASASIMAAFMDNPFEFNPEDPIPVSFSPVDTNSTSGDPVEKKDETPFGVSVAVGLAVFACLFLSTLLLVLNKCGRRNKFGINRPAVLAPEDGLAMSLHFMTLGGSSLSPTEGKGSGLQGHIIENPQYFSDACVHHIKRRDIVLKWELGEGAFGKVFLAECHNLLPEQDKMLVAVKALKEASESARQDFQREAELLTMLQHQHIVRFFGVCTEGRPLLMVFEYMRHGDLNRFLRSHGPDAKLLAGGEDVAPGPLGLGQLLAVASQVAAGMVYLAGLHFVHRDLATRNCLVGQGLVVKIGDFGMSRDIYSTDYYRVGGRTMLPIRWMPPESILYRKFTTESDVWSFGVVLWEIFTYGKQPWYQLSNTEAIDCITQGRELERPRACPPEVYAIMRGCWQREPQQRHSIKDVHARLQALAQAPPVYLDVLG
Chain of Angiopoietin-1 receptor (Homo sapiens) (Q02763 whole entry): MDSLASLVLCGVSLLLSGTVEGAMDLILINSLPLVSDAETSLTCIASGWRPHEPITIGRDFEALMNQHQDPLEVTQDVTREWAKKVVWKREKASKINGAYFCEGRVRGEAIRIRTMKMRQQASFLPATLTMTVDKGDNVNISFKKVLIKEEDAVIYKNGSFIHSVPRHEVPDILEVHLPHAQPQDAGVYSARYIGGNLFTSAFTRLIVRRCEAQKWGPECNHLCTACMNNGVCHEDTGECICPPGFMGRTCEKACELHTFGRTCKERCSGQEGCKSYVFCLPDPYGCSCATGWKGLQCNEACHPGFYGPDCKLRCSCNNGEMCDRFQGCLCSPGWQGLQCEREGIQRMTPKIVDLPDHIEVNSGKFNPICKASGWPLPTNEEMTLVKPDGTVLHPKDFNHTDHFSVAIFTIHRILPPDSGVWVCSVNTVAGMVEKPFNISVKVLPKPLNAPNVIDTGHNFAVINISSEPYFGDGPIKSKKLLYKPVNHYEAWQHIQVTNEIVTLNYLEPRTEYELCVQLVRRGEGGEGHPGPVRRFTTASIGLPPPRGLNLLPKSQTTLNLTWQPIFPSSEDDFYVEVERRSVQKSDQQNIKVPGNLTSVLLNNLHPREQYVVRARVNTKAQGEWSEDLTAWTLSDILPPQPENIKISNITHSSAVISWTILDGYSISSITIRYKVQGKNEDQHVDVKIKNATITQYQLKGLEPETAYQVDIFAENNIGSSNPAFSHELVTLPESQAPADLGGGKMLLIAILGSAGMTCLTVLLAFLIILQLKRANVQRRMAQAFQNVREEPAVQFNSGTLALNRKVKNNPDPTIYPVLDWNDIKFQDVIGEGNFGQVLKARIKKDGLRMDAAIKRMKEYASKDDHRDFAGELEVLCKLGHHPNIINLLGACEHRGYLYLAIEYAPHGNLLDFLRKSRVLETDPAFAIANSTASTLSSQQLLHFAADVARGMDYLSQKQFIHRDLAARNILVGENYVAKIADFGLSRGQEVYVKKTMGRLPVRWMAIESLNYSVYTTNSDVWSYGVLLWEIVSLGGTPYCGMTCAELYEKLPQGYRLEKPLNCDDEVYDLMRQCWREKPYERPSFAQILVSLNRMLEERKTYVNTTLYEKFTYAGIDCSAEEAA
Chain of Vascular endothelial growth factor receptor 3 (Homo sapiens) (P35916 whole entry): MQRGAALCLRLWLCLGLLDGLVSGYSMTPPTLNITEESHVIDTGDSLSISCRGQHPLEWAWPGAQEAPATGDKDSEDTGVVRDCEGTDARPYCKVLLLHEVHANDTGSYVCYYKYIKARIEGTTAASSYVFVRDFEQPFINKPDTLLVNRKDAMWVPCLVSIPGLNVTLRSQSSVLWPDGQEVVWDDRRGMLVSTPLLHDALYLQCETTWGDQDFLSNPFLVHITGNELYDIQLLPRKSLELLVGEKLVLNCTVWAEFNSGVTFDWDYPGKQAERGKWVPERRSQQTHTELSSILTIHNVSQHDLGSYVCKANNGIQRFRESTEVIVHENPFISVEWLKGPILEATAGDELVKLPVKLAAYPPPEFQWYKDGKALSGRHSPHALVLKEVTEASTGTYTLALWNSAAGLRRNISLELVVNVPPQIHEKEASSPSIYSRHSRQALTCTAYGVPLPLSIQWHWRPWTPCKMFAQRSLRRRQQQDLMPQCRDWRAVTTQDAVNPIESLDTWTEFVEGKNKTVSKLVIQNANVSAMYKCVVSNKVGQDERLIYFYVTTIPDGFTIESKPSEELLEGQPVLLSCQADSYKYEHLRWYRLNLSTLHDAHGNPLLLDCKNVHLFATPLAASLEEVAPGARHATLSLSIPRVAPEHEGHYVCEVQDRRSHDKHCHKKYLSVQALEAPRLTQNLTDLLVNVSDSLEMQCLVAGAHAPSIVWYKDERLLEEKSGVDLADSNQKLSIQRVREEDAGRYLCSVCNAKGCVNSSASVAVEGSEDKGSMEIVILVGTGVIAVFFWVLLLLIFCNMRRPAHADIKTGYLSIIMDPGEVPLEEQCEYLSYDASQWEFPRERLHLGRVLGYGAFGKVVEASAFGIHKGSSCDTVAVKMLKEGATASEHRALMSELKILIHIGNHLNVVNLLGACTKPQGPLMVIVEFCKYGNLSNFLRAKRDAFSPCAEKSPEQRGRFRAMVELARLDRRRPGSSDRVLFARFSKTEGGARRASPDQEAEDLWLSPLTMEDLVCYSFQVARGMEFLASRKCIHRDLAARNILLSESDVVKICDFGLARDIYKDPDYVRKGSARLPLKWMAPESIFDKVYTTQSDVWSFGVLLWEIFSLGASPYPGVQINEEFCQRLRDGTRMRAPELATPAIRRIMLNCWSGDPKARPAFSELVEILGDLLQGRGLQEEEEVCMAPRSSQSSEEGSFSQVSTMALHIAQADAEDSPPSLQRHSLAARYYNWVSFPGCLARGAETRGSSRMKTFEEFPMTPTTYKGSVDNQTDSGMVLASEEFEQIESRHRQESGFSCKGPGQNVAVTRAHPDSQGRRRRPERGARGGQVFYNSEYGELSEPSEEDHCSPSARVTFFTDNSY
Chain of Fibroblast growth factor receptor 3 (Homo sapiens) (P22607 23-806 limits assumed): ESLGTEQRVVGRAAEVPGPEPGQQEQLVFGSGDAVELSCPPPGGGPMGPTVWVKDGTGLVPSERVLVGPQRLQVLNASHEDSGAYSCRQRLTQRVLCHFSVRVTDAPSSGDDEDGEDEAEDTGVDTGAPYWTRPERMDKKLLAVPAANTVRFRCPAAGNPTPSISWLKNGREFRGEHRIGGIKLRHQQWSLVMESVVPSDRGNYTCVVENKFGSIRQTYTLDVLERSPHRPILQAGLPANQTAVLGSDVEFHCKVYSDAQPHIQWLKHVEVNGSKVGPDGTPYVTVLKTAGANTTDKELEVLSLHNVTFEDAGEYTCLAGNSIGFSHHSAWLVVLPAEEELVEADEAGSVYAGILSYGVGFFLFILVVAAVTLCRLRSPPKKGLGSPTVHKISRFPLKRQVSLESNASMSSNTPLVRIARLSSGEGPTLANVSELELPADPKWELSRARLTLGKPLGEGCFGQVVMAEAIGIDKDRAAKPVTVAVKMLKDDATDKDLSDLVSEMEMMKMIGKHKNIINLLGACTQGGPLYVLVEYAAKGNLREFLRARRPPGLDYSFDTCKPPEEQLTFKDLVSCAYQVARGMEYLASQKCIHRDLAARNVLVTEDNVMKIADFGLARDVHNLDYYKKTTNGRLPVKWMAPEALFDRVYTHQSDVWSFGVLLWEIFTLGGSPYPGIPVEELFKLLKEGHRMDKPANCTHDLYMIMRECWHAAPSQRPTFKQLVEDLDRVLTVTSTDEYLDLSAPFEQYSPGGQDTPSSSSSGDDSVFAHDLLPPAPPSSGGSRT

| SMILES | Activity [1] [%] | Activity [2] [%] | Activity [3] [%] | Activity [7] [%] | Activity [10] [%] | Cell viability relative to control [13] [%] | Activity [14] [%] | Activity [15] [%] | Activity [17] [%] | Activity [18] [%] | Activity [19] | Activity [21] [%] | Activity [22] [%] | Activity [24] | Activity [25] [%] | Activity [28] [%] | Activity [29] [%] | Activity [30] [%] | Activity [32] [%] | Activity [33] [%] | also measured |
| --- | --- | --- | --- | --- | --- | --- | --- | --- | --- | --- | --- | --- | --- | --- | --- | --- | --- | --- | --- | --- | --- |
| CCN1CCN(C2CCN(Cc3c[nH]c4ncc(-c5ccc(S(=O)(=O)C(C)C)cc5)cc34)CC2)CC1 | 87 | 87 | 46 | 46 | 87 | 87 | 46 | 87 | 46 | 87 | Active | 46 | 87 | Active | 46 | 87 | 87 | 46 | 46 | 46 | Activity [4]: 92%; Activity [5]: 91%; Activity [6]: 108%; Activity [8]: 81%; Activity [9]: 97%; Activity [11]: 83%; Activity [12]: Active; Activity [16]: 88%; Activity [20]: 129%; Activity [23]: 80%; Activity [26]: 84%; Activity [27]: 86%; Activity [31]: 82%; Activity [34]: 96% |
| CC(C)S(=O)(=O)c1ccc(-c2cnc3[nH]nc(C(=O)N4CCC(c5ccccc5)CC4)c3c2)cc1 | 79 | 79 | 49 | 49 | 79 | 79 | 49 | 79 | 49 | 79 | Active | 49 | 79 | 50% | 49 | 79 | 79 | 49 | 49 | 49 | Activity [4]: 90%; Activity [5]: 73%; Activity [6]: 105%; Activity [8]: 61%; Activity [9]: 98%; Activity [11]: 89%; Activity [12]: Active; Activity [16]: 59%; Activity [20]: 77%; Activity [23]: 39%; Activity [26]: 70%; Activity [27]: 80%; Activity [31]: 108%; Activity [34]: 59% |
| Nc1nn2cc(F)cnc2c1C(=O)Nc1cncc(F)c1N1CCC(C(=O)N2CCN(C3COC3)CC2)CC1 [M4344] |  |  |  |  |  |  |  |  |  |  |  |  |  |  |  |  |  |  |  |  | Ki [35]: < 200 pM |
| CC(C)S(=O)(=O)c1ccc(-c2cnc3[nH]cc(CN4CCC(c5ccccc5)CC4)c3c2)cc1 | 77 | 77 | 46 | 46 | 77 | 77 | 46 | 77 | 46 | 77 | Active | 46 | 77 | Active | 46 | 77 | 77 | 46 | 46 | 46 | Activity [36]: 100% |
| CC(C)S(=O)(=O)c1ccc(-c2cnc3[nH]cc(C(=O)N4CCC(c5ccccc5)CC4)c3c2)cc1 | 30 | 30 | 28 | 28 | 30 | 30 | 28 | 30 | 28 | 30 | Active | 28 | 30 | Active | 28 | 30 | 30 | 28 | 28 | 28 | Activity [4]: 60%; Activity [5]: 52%; Activity [6]: 57%; Activity [8]: 49%; Activity [9]: 56%; Activity [11]: 30%; Activity [16]: 90%; Activity [20]: 16%; Activity [23]: 10%; Activity [26]: 57%; Activity [27]: 45%; Activity [31]: 42%; Activity [34]: 91% |
